Results from patent US11317627B2, “Soybean disease control composition and soybean disease control method” (priority 2015, dated 2022).

What was measured:
[1] = test system: soybean rust fungus (Phakopsora pachyrhizi); experiment: Test on spore germination inhibition against soybean rust fungus; format: cell-based; settings: single use, 25° C., 5 hours
Procedure: Test Example 1: Test on Spore Germination Inhibition Against Soybean Rust Fungus (Phakopsora pachyrhizi)
A spore suspension of soybean rust fungus was added to an aqueous chemical solution prepared so as to contain each test compound in a predetermined concentration and the whole was kept in a moist chamber at 25° C. for 5 hours. Thereafter, the presence of spore germination was investigated using a microscope, the spore germination rate was determined, and the spore germination inhibition rate was determined according to the following calculation formula. Spore germination inhibition rate=(1−a/b)×100 • a: spore germination rate in treated section, b: spore germination rate in untreated section Colby's formula=(X+Y)−XY/100 • X: spore germination inhibition rate in single use of ingredient (a) • Y: spore germination inhibition rate in single use of ingredient (b)
Based on the obtained spore germination inhibition rate, the theoretical value (spore germination inhibition rate) was calculated using the Colby's formula. The theoretical value according to the Colby's formula was shown in brackets ( ) in Tables 1 to 6.
In the case where the experimental value is higher than the theoretical value, the composition of the present invention has a synergistic effect on soybean rust fungus.

[2] = test system: Rhizoctonia solani; experiment: Test on mycelial growth inhibition effect against soybean Rhizoctonia rot; format: cell-based; settings: single use, PSA, 20° C., 2 days
Procedure: Test Example 2: Test on Mycelial Growth Inhibition Effect Against Soybean Rhizoctonia Rot (Rhizoctonia solani)
A colony (4 mmϕ) obtained by preculture was inoculated to PSA containing a chemical agent of a predetermined concentration and, after culture at a room temperature of 20° C. for 2 days, the diameter of the grown colony was measured to determine a mycelial growth inhibition rate. Mycelial growth inhibition rate=(1−A/B)×100 • A: diameter of colony in treated section, B: diameter of colony in untreated section Colby's formula=(X+Y)−XY/100 • X: mycelial growth inhibition rate in single use of ingredient (a) • Y: mycelial growth inhibition rate in single use of ingredient (b)
Based on the obtained experimental value of the mycelial growth inhibition rate, the theoretical value of the mycelial growth inhibition rate was calculated using the Colby's formula. The theoretical value according to the Colby's formula was shown in brackets ( ) in Tables 7 to 11.
In the case where the experimental value is higher than the theoretical value, the composition of the present invention has a synergistic effect on Rhizoctonia solani.

[3] = Phakopsora pachyrhizi, read-out: Spore germination inhibition rate
[4] = Phakopsora pachyrhizi, 0.1 ppm, read-out: Spore germination inhibition rate
[5] = Rhizoctonia solani, 48 h, 0.1 ppm, read-out: Mycelial growth inhibition rate
[6] = Rhizoctonia solani, 48 h, 1 ppm, read-out: Mycelial growth inhibition rate
[7] = Rhizoctonia solani, 48 h, read-out: Mycelial growth inhibition rate

SMILES	Spore germination inhibition rate ([1]; 0.1 ppm) [%]	Spore germination inhibition rate ([1]; 1 ppm) [%]	Mycelial growth inhibition rate ([2]; 0.1 ppm) [%]	inhibition at 0.01 ppm [1, 3] [%]	inhibition at 0.1 ppm [1, 4] [%]	inhibition at 0.1 ppm [2, 5] [%]	inhibition at 1 ppm [2, 6] [%]	inhibition at 0.01 ppm [2, 7] [%]	inhibition at 1 ppm ([1]; Phakopsora pachyrhizi, 1 ppm, read-out: Spore germination inhibition rate) [%]	inhibition at 0.001 ppm ([2]; Rhizoctonia solani, 48 h, 0.001 ppm, read-out: Mycelial growth inhibition rate) [%]	Mycelial growth inhibition rate ([2]; 1 ppm) [%]
Cn1cc(C(=O)Nc2cccc3c2[C@@H]2CC[C@H]3C2=C(Cl)Cl)c(C(F)F)n1 (racemic) [Benzovindiflupyr, benzovindiflupyr]	45	52	71	–	–	–	–	–	–	–	–
Fc1ccc([C@]2(Cn3cncn3)O[C@H]2c2ccccc2Cl)cc1 (racemic) [Epoxiconazole, epoxiconazole]	–	–	–	1	5	39	83	–	–	–	–
CC(C1CC1)C(O)(Cn1cncn1)c1ccc(Cl)cc1 (stereo not shown) [Cyproconazole, cyproconazole]	–	–	–	–	9	34	80	7	–	–	–
O=[N+]([O-])c1cc(C(F)(F)F)c(Cl)c([N+](=O)[O-])c1Nc1ncc(C(F)(F)F)cc1Cl [Fluazinam, fluazinam]	–	–	78	–	27	73	88	14	71	2	92
Cn1cc(C(=O)Nc2ccccc2-c2cc(F)c(F)c(F)c2)c(C(F)F)n1 [Fluxapyroxad, fluxapyroxad]	–	41	42	–	–	–	–	–	–	–	–
OC(Cc1ccccc1Cl)(Cn1nc[nH]c1=S)C1(Cl)CC1 (stereo not shown) [Prothioconazole, prothioconazole]	–	–	–	37	89	–	–	–	–	–	–
CC(C)(C)C(O)(CCc1ccc(Cl)cc1)Cn1cncn1 (stereo not shown) [Tebuconazole, tebuconazole]	–	–	–	12	88	31	70	17	–	–	–
